Counter-ions that a name gives are not always drawn.
Test system: TGFβ signal
Assay: TGFβ signal inhibitory activity, (SBE)4-Luc luciferase reporter in A549 cells
Type: cell-based, human
Conditions: TGFβ-1 2 ng/ml, A549 (SBE)4-Luc; for inhibition at 3 µM / inhibition at 10 µM: Homo sapiens, A549, 4 h; for TGFβ inhibition, %: 4 hr
Description: The TGFβ signal inhibitory activity of compounds according to the present invention was evaluated according to the method described in J. Boil. Chem., 273, 21145-21152 (1998). Specifically, a luciferase gene driving by four tandem binding sequences of Smad2/3, which are TGFβ signal transfer factors was used as a reporter gene ((SBE)4-Luc). This reporter gene was introduced into human lung cancer epithelial cells (A549) (available from ATCC) to establish a stable cell line expressing its gene. A test compound and TGFβ-1 (2 ng/ml) were added to the cells, and the mixture was cultured for 4 hr. Compounds according to the present invention synthesized in the above working examples were used as the test compound. After the culture, the luciferase activity of cells was measured by a chemiluminescence method (Steady Glo (trademark) luciferase assay system available from Promega). Likewise, the luciferase activity was measured for control cells, that is, cells which had been cultured with the addition of TGFβ only, and cells which had been cultured without the addition of TGFβ and the test compound. The TGFβ inhibition rate (%) was calculated based on the results of measurement according to the following equation: TGFβ inhibition rate (%)=(A−B)/(A−C)×100 wherein A, B and C have the following respective meanings: A: luciferase activity in the case where TGFβ1 was added and the test compound was not added (relative luciferase unit); B: luciferase activity in the case where both TGFβ1 and the test compound were added (relative luciferase unit); and C: luciferase activity in the case where neither TGFβ1 nor the test compound was added (relative luciferase unit). The test was carried out for each of a test compound concentration of 3 μM and a test compound concentration of 10 μM. For given test compounds, the test was further carried out for a test compound concentration of 1 μM.

Structure (SMILES)	inhibition at 3 µM (test compound 3 μM)	inhibition at 10 µM (test compound 10 μM)	TGFβ inhibition, % (test compound 3 μM)	TGFβ inhibition, % (test compound 10 μM)
COc1cc2nccc(Oc3ccccc3C(=O)c3ccccc3)c2cc1OC [Compound 62, {2-[(6,7-Dimethoxy-4-quinolyl)oxy]-phenyl}(phenyl)-methanone]	43%	85%		
COc1cc2c(Oc3cc4ccccc4nc3C)ccnc2cc1OCCN1CCOCC1.Cl.Cl.Cl [Compound 366, 6-Methoxy-4-(2-methyl-quinolin-3-yloxy)-7-(2-morpholin-4-yl-ethoxy)-quinoline hydrochloride]			100%	100%
COc1cc2c(Oc3cc(C)c(C)cc3C(C)=O)ccnc2cc1OCCCN1CCOCC1.Cl.Cl [Compound 320, 1-{2-[6-Methoxy-7-(3-morpholin-4-yl-propoxy)-quinolin-4-yloxy]-4,5-dimethyl-phenyl}-ethanone hydrochloride]			100%	100%
COc1cc2nccc(Oc3ccc(C)cc3C(=O)c3ccccc3)c2cc1OC [Compound 71, {2-[(6,7-Dimethoxy-4-quinolyl)oxy]-5-methylphenyl}-(phenyl)methanone]	79%	100%		
COc1ccc(Oc2ccnc3cc(OC)c(OC)cc23)c(C(C)=O)c1.Cl [Compound 177, 1-[2-(6,7-Dimethoxy-quinolin-4-yloxy)-5-methoxy-phenyl]-ethanone hydrochloride]			94%	100%
COc1cc2nccc(Oc3cc(C)c(C)cc3C(=O)c3ccccc3)c2cc1OC [Compound 76, {2-[(6,7-Dimethoxy-4-quinolyl)oxy]-4,5-dimethylphenyl}-(phenyl)methanone hydrochloride]	95%	100%		
C=CCO/N=C(\C)c1cc(C)c(C)cc1Oc1ccnc2cc(OC)c(OC)cc12 [Compound 197, 1-[2-(6,7-Dimethoxy-quinolin-4-yloxy)-4,5-dimethyl-phenyl]-ethanone o-allyl-oxime]	40%			
COc1ccc(Oc2ccnc3cc(OC)c(OC)cc23)c(C(C)=O)c1 [Compound 36, 1-{2-[(6,7-Dimethoxy-4-quinolyl)oxy]-5-methoxyphenyl}-1-ethanone]	95%	100%		
COc1cc2nccc(Oc3ccccc3C(=O)c3ccccc3)c2cc1OC.Cl [Compound 63, {2-[(6,7-Dimethoxy-4-quinolyl)oxy]-phenyl}(phenyl)-methanone hydrochloride]			57%	91%
COc1cc2nccc(Oc3ccc(C)cc3C(=O)c3ccccc3)c2cc1OC.Cl [Compound 72, {2-[(6,7-Dimethoxy-4-quinolyl)oxy]-5-methylphenyl}-(phenyl)methanone hydrochloride]			98%	100%
COc1cc2nccc(Oc3ccc(Cl)cc3C(=O)c3ccccc3)c2cc1OC [Compound 68, {5-Chloro-2-[(6,7-dimethoxy-4-quinolyl)oxy]phenyl}-(phenyl)methanone]	89%	100%		
COc1cc2nccc(Oc3ccc(F)nc3I)c2cc1OC [Compound 211, 4-(6-Fluoro-2-iodo-pyridin-3-yloxy)-6,7-dimethoxy-quinoline]	87%	100%		
COc1cc2nccc(Oc3ccc(Cl)cc3C(=O)c3ccccc3)c2cc1OC.Cl [Compound 69, {5-Chloro-2-[(6,7-dimethoxy-4-quinolyl)oxy]phenyl}-(phenyl)methanone hydrochloride]			100%	100%
COc1cc2c(Oc3cc(C)c(C)cc3C(C)=O)ccnc2cc1OCCCN1CCOCC1 [Compound 319, 1-{2-[6-Methoxy-7-(3-morpholin-4-yl-propoxy)-quinolin-4-yloxy]-4,5-dimethyl-phenyl}-ethanone]		100%		
COc1cc2c(Oc3cc4ccccc4nc3C)ccnc2cc1OCCN1CCOCC1 [Compound 365, 6-Methoxy-4-(2-methyl-quinolin-3-yloxy)-7-(2-morpholin-4-yl-ethoxy)-quinoline]	100%	100%		
COc1cc2nccc(Oc3cc(C)c(C)cc3/C(C)=N/O)c2cc1OC [Compound 195, 1-[2-(6,7-Dimethoxy-quinolin-4-yloxy)-4,5-dimethyl-phenyl]-ethanone oxime]		100%		

Source: patent publication US7560558B2, “Compound having TGFβ inhibitory activity and medicinal composition containing the same” (Kirin Beer Kabushiki Kaisha, priority 2002, dated 2009)
